Assay results taken from US20240418703A1, “CULTURE MEDIUM FOR PRIMARY OVARIAN CANCER CELLS, CULTURE METHOD AND APPLICATION THEREOF” (PRECEDO PHARMACEUTICALS CO., LTD, priority 2021, published 2024).
Like-named read-outs stand apart in the source and are kept apart here.

B1: human fibroblast growth factor −10 (protein, UniProt O15520 38-208, looked up)
Fibroblast growth factor 10: QALGQDMVSPEATNSSSSSFSSPSSAGRHVRSYNHLQGDVRWRKLFSFTKYFLKIEKNGKVSGTKKENCPYSILEITSVEIGVVAVKAINSNYYLAMNKKGKLYGSKEFNNDCKLKERIEENGYNTYASFNWQHNGRQMYVALNGKGAPRRGQKTRRKNTSAHFLPMVVHS
notes: medium additive, supplier sino biological
B2: fibroblast growth factors 7 (protein, UniProt P21781 32-194, looked up)
Fibroblast growth factor 7: CNDMTPEQMATNVNCSSPERHTRSYDYMEGGDIRVRRLFCRTQWYLRIDKRGKVKGTQEMKNNYNIMEIRTVAVGIVAIKGVESEFYLAMNKEGKLYAKKECNEDCNFKELILENHYNTYASAKWTHNGGEMFVALNQKGIPVRGKKTKKEQKTAHFLPMAIT
notes: medium additive, supplier R&D
B3: R-spondin1 (protein, UniProt Q2MKA7 21-263, looked up)
R-spondin-1: SRGIKGKRQRRISAEGSQACAKGCELCSEVNGCLKCSPKLFILLERNDIRQVGVCLPSCPPGYFDARNPDMNKCIKCKIEHCEACFSHNFCTKCKEGLYLHKGRCYPACPEGSSAANGTMECSSPAQCEMSEWSPWGPCSKKQQLCGFRRGSEERTRRVLHAPVGDHAACSDTKETRRCTVRRVPCPEGQKRRKGGQGRRENANRNLARKESKEAGAGSRRRKGQQQQQQQGTVGPLTSAGPA
notes: medium additive, supplier R&D
B4: amphiregulin (protein, UniProt P15514 101-187, looked up)
Amphiregulin: SVRVEQVVKPPQNKTESENTSDKPKRKKKGGKNGKNRRNRKKKNPCNAEFQNFCIHGECKYIEHLEAVTCKCQQEYFGERCGEKSMK
modifications: Amphiregulin
notes: medium additive, supplier MCE
B5: noggin (protein, UniProt Q13253 28-232, looked up)
Noggin: QHYLHIRPAPSDNLPLVDLIEHPDPIFDPKEKDLNETLLRSLLGGHYDPGFMATSPPEDRPGGGGGAAGGAEDLAELDQLLRQRPSGAMPSEIKGLEFSEGLAQGKKQRLSKKLRRKLQMWLWSQTFCPVLYAWNDLGSRFWPRYVKVGSCFSKRSCSVPEGMVCKPSKSVHLTVLRWRCQRRGGQRCGWIPIQYPIISECKCSC
notes: medium additive, supplier R&D

Legend:
[1] = tested on: primary ovarian cancer cells; test: Effect of single additives in Basal Medium on proliferation of primary ovarian cancer cells (cell counting); format: cell-based, human; parameters: key: +: compared with the Basal Medium, the culture medium added with the additive(s) has the effect of promoting the proliferation of two cases of primary ovarian cancer cells isolated from ovarian cancer tissue; −: the culture medium added with the additive(s) has the effect of promoting the proliferation of one case of primary ovarian cancer cells isolated from ovarian cancer tissue; the culture medium added with the additive(s) has no significant effect on the proliferation of at least two cases of primary ovarian cancer cells isolated from ovarian cancer tissue
Procedure: First, a Basal Medium containing initial medium was prepared. The initial medium may be selected from the group consisting of DMEM/F12, DMEM, F12, or RPMI-1640 commonly used in the art. In this example, the formulation of the Basal Medium is: DMEM/F12 medium (purchased from Corning)+100 μg/mL Primocin (purchased from InvivoGen, 0.2% (v/v), commercial product has a concentration of 50 mg/mL). Different types of additives (see Table 1) were added to the Basal Medium to prepare culture mediums for primary ovarian cancer cells with different components.
Tissue samples (intraoperative) of ovarian cancer solid tumor were obtained from patients by professional medical practitioner of professional medical institutions, and all patients have signed the informed consent. Intraoperative samples having the size of 0.25 cm^3, endoscopic samples having the size of 0.025 cm^3 were stored and transported using commercial tissue preservation solution (manufacturer: Miltenyi Biotec).
Tissue digestion solution: 1640 medium (Corning, 10-040-CVR), collagenase II (2 mg/mL), collagenase IV (2 mg/mL), DNase (50 U/mL), hyaluronidase (0.75 mg/mL), calcium chloride (3.3 mM), BSA (10 mg/mL).
• 3.1. Tissue samples were transferred from the ultra-clean workbench to a culture dish, and the tissue with blood was removed. The tissue samples were rinsed twice with Basal Medium, and then were transferred to another culture dish and mechanically cut with a sterile scalpel into tissue blocks of 1×1×1 mm^3 in size. • 3.2. The cut intraoperative tissues were aspirated into a 15 mL centrifuge tube, to which 5 mL of Basal Medium was added, fully mixed, and then centrifuged at 1500 rpm for 4 minutes. • 3.3. The supernatant was discarded, and the resultant was added with 1:3 mixture of Basal Medium and tissue digestion solution (the amount of tissue digestion solution added was about 10 mL tissue digestion solution for 1 g of tumor tissue). The samples were marked with names and numbers, sealed with sealing film, and then digested in a shaker (Zhichu Instrument ZQLY-180N) at 37° C., 300 rpm. The completion of digestion was determined via observation every 30 minutes, based on the existing of visible particles or not. The digestion time was 4 hours. • 3.4. After the digestion was completed, undigested tissue mass was filtered out through a […] filter mash. The tissue mass on the filter mash was rinsed into the centrifuge tube with Basal Medium to reduce cell loss. The resultant was centrifuged at 25° C., 1500 rpm for 4 minutes. • 3.5. […] If there were blood cells, 8 mL blood cell lysate (purchased from Sigma) was added in the resultant and fully mixed, lysed at 4° C. for 20 minutes, with inverting and mixing once during the process. The resultant was centrifuged at 25° C., 1500 rpm for 4 minutes. • 3.6. The supernatant was discarded and 2 mL Basal Medium was added to resuspend the cells for reserve.
• 4.1. Microscopic observation: a small amount of resuspended cells were plated in a culture dish, and the density and morphology of cancer cells were observed under a microscope (CNOPTEC, BDS400); • 4.2. Viable cell counting: 12 μL of the resuspended cell suspension was fully mixed with 12 μL of trypan blue staining solution (Sangon Biotech (Shanghai) Co., Ltd.), and then 20 μL of the mixture was added into a cell counting plate (Countstar, specifications: 50 pieces/box).
The primary ovarian cancer cells isolated from 2 cases of ovarian cancer tissues (numbered L40 and LQQ) according to the above step (2) were resuspended in the culture medium in Table 1, respectively and the cell number was counted. The Basal Medium was mixed with matrigel (Corning®, 356231) in a 50:1 ratio on ice. 300 μL of the mixture was plated and incubated in a 5% CO2 incubator at 37° C. for 25-35 minutes, preferably 30 minutes. The supernatant was discarded. […]

[2] = tested on: primary ovarian cancer cells; test: Effect of different concentrations of added factors on proliferation of primary ovarian cancer cells (ratio to Blank Control); format: cell-based, human
[3] = additive in Basal Medium at the final concentration, samples L40 and LQQ, 7-10 days of culture, versus Basal Medium
[4] = factor added to the medium lacking it, FIGS. 2A-2L
[5] = samples A26083, L56, L62, FIGS. 2A-2L

Row | Molecule | Level of promoting proliferation [1, 3] | proliferation-promoting effect on primary ovarian cancer cells [2, 5] | other results
1 | insulin | + | significant proliferation-promoting effect | concentration at which the cell proliferation effect is most significant [2, 4]: 9 µg/mL; more preferable amount according to the results of this example ([2]; more preferably, FIGS. 2A-2L): 3 to 9 µg/mL
2 | basic fibroblast growth factor | ○ |  | 
3 | epidermal growth factor | − | significant proliferation-promoting effect | preferable amount according to the results of this example ([2]; preferably, FIGS. 2A-2L): 2.5 to 40 ng/mL
4 | NC(=O)c1cccnc1 [nicotinamide, reference compound] | ○ |  | 
5 | Oc1ccc(-c2nc(-c3ccncc3)c(-c3ccc(F)cc3)[nH]2)cc1 [SB202190, reference compound] | ○ |  | 
6 | Cc1c[nH]c(-c2cnc(NCCNc3ccc(C#N)cn3)nc2-c2ccc(Cl)cc2Cl)n1 [CHIR99021, reference compound] | ○ |  | 
7 | CN1C(=O)C(c2c(F)cccc2F)N(C)c2nc(Nc3ccc(S(N)(=O)=O)cc3)ncc21 (centres unmarked) [Compound 1, 4-((7-(2,6-Difluorophenyl)-5,8-dimethyl-6-oxo-5,6,7,8-tetrahydropteridin-2-yl)amino)benzsulfamide] | + | significant proliferation-promoting effect | concentration at which the cell proliferation effect is most significant [2, 4]: 5 µM
8 | vitamin E [reference compound] | ○ |  | 
9 | cholera toxin |  |  | Level of promoting proliferation [1]: +; concentration at which the cell proliferation effect is most significant [2]: 0.1 µg/mL; more preferable amount according to the results of this example [2]: 0.05 to 0.2 µg/mL; preferable amount according to the results of this example [2]: 50 to 800 ng/mL; proliferation-promoting effect on primary ovarian cancer cells [2]: significant proliferation-promoting effect
10 | C[C@@H](N)[C@H]1CC[C@H](C(=O)Nc2ccncc2)CC1 [Compound Y-27632, Y-27632, reference compound] | + | significant proliferation-promoting effect | concentration at which the cell proliferation effect is most significant [2, 4]: 5 µM
11 | insulin-like growth factor-1 | + | significant proliferation-promoting effect | concentration at which the cell proliferation effect is most significant [2, 4]: 0.05 µg/mL; preferable amount according to the results of this example ([2]; preferably, FIGS. 2A-2L): 25 to 100 ng/mL
12 | CCCCC[C@H](O)/C=C/[C@H]1[C@H](O)CC(=O)[C@@H]1C/C=C\CCCC(=O)O [prostaglandin E2, reference compound] | − | significant proliferation-promoting effect | concentration at which the cell proliferation effect is most significant [2, 4]: 2.5 µM
13 | neuregulin −1 | ○ |  | 
14 | C[C@]12CCC(=O)C=C1CC[C@@H]1[C@@H]2[C@@H](O)C[C@@]2(C)[C@H]1CC[C@]2(O)C(=O)CO [hydrocortisone, reference compound] | ○ |  | 
15 | NC(=O)c1ccc(-c2nc(-c3ccc4c(c3)OCO4)c(-c3ccccn3)[nH]2)cc1 [SB431542, reference compound] | ○ |  | 
16 | hepatocyte growth factor | ○ |  | 
17 | CC(=O)C(=O)[O-].[Na+] [sodium pyruvate, reference compound] | ○ |  | 
18 | Cc1cccc(-c2nn(C(=S)Nc3ccccc3)cc2-c2ccnc3ccccc23)n1 [Compound A8301, A8301, reference compound] | ○ |  | 
19 | B1 | ○ |  | 
20 | B2 | ○ |  | 
21 | B3 | ○ |  | 
22 | B4 | + | significant proliferation-promoting effect | concentration at which the cell proliferation effect is most significant [2, 4]: 0.003 µg/mL; preferable amount according to the results of this example ([2]; preferably, FIGS. 2A-2L): 1 to 81 ng/mL
23 | B5 | ○ |  | 
